Measurements published in publication PMC10411625, “Rationally designed stapled peptides allosterically inhibit PTBP1–RNA-binding” (Chemical Science, 2023).
Residue numbers refer to the chain shown, from its start. {FAM} = fluorescein (FAM) label

Key:
[1] = target: T1, PTBP1 RRM1Δα3 (RRM1 lacking the α3-helix) (Homo sapiens, UniProt P26599); assay: Fluorescence polarization binding of FAM-RNA to PTBP1 RRM1Δα3; conditions: FP, 5 nM FAM-labelled RNA, 20 mM sodium phosphate pH 8.0, 50 mM NaCl, 0.001% Tween20, 20 °C, 30 min
T1 construct: (G41-S140); His tag (N); made in house; host or cells: E. coli BL21 DE3 RIL
Excerpt: (§1) To confirm the role of the α3-helix described by the Allain group we performed fluorescence polarization (FP) experiments with various PTBP1 protein constructs and two RNA sequences.[25] The first set of proteins contained either the single RRM1, RRM1 lacking the α3-helix (RRM1Δα3) or RRM1–L151G (Fig. 1A and C). The L151G mutation was previously described by the Allain group to break the fold of the helix and reduce RNA-binding 2.3 fold as measured by ITC.[25] As tracer in the FP experiments, we used a FAM-labelled short RNA (RNA-1) with a single PTBP1 binding site (UCUU) which can accommodate a single RRM (Fig. 1B). […] The L151G mutation reduced binding 3.6-fold which is somewhat higher than what was observed previously but in the same range. […] To see whether the effect of the helix was also present in larger constructs we measured the affinity of RRM1 and 2 combined (RRM12) as well as the RRM12–L151G mutant. […]
(§2) size exclusion chromatography (Superdex 75 16/60 or 26/60) with SEC buffer (50 mM Tris, 200 mM NaCl). Protein homogeneity was assessed by the size exclusion chromatogram and purity was checked by SDS-PAGE analysis to be >= 90%.
(§3) The gene encoding for SRSF1-RRM12 (1-195) was subcloned into pOPIN-His expression vector and expressed in E. coli BL21 (DE3). […]
(§4) Fluorescence polarization assay with PTBP1 […]

PTBP1 RRM12-L151G = target: T2, PTBP1 RRM12-L151G (Homo sapiens, UniProt P26599, L151G); assay: Fluorescence polarization binding of FAM-RNA to PTBP1 RRM12-L151G
T2 construct: (P57-V265); MBP (from pMAL vector); His tag; made in house; host or cells: E. coli BL21 DE3 RIL
T2 sequence (P26599 57-265 L151G): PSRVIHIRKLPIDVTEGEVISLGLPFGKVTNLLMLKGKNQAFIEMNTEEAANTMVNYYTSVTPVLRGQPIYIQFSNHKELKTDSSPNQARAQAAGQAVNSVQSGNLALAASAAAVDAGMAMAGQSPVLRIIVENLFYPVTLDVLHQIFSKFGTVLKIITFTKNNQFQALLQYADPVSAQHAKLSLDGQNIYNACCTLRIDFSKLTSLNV
Excerpt: as §1, §2, §3, §4

PTBP1 RRM1-L151G = target: T3, PTBP1 RRM1-L151G (Homo sapiens, UniProt P26599, L151G); assay: Fluorescence polarization binding of FAM-RNA to PTBP1 RRM1-L151G
T3 construct: (G41-A163,; His tag; made in house; host or cells: E. coli BL21 DE3 RIL
T3 sequence (P26599 41-163 L151G): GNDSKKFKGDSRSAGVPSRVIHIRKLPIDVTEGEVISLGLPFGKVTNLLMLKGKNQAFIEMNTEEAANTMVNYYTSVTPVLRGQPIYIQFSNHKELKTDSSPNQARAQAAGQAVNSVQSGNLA
Excerpt: as §1, §2, §3, §4

[2] = target: T4, PTBP1 RRM1 (MBP-RRM1, G41-A163) (Homo sapiens, UniProt P26599); assay: Fluorescence polarization binding of FAM-RNA to PTBP1 RRM1; conditions: FP, 5 nM FAM-labelled RNA, 20 mM sodium phosphate pH 8.0, 50 mM NaCl, 0.001% Tween20, 20 °C, 30 min
T4 construct: (G41-A163); His tag; made in house; host or cells: E. coli BL21 DE3 RIL
T4 sequence (P26599 41-163): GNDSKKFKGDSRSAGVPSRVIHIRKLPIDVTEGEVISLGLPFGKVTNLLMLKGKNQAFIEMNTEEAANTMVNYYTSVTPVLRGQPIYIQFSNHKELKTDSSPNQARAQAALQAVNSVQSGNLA
Excerpt: as §1, §2, §3, §4

PTBP1 RRM12 (P57-V265) = target: T5, PTBP1 RRM12 (P57-V265) (Homo sapiens, UniProt P26599); assay: Fluorescence polarization binding of FAM-RNA to PTBP1 RRM12; conditions: FP, 5 nM FAM-labelled RNA, 20 mM sodium phosphate pH 8.0, 50 mM NaCl, 0.001% Tween20, 20 °C, 30 min
T5 construct: (P57-V265); MBP (from pMAL vector); His tag; made in house; host or cells: E. coli BL21 DE3 RIL
T5 sequence (P26599 57-265): T2 sequence (P26599 57-265 L151G) with G95L
Excerpt: as §1, §2, §3, §4

[3] = target: T6, PTBP1 RRM2 (MBP-RRM2, M177-D284) (Homo sapiens, UniProt P26599); assay: Fluorescence polarization binding of FAM-RNA to PTBP1 RRM2; conditions: FP, 5 nM FAM-labelled RNA, 20 mM sodium phosphate pH 8.0, 50 mM NaCl, 0.001% Tween20, 20 °C, 30 min
T6 construct: (M177- D284); His tag; made in house; host or cells: E. coli BL21 DE3 RIL
T6 sequence (P26599 177-284): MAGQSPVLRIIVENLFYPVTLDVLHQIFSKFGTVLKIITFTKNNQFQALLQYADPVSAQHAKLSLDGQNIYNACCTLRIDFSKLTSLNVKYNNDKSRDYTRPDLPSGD
Excerpt: as §1, §2, §3, §4

[4] = FP, 5 nM FAM-labelled RNA, 20 mM sodium phosphate pH 8.0, 50 mM NaCl, 0.001% Tween20, 20 °C, 30 min

With “RNA-2: FAM-AUUUUUCCAUCUUUGUAUC, sequence of microRNA miR-29b-2, two poly(U) motifs (RNA, 5' {FAM}, backbone not given here)” the Kd [1] was 6450 ± 1360 nM, the Kd (PTBP1 RRM12-L151G; [4]) was 42 ± 1 nM and the “reduction of RNA affinity by L151G mutation, RRM12-L151G versus RRM12” value (PTBP1 RRM12-L151G; from FP KD values) was 2.5 fold. The Kd (PTBP1 RRM1-L151G; [4]) was 218 ± 11 nM, the “reduction of RNA affinity by L151G mutation, RRM1-L151G versus RRM1” value (PTBP1 RRM1-L151G; from FP KD values) was 2.4 fold and the Kd [2] was 90 ± 23 nM. The Kd (PTBP1 RRM12 (P57-V265)) was 17 ± 2 nM and the Kd [3] was 721 ± 308 nM.
